What was measured:
[1] = tested on: TM4SF5-expressing cells (SNU449T7); experiment: 3D sphere growth/proliferation; assay type: cell-based, human; conditions: for degree of cell proliferation (spheres): 2.5 µM on the 0 and 3rd days, observed 6th day (FIG. 5b); for cell proliferation inhibitory effect: 0.5 or 2.5 µM (FIG. 10a, b), comparison among drugs; for survival/proliferation of the spheres: given concentrations on the 0, 3, 6, and 9th days, observed 10th day (FIG. 12b-c)
Experimental: TM4SF5-non-expressing cells (SNU449Cp) and TM4SF5-expressing cells (SNU449T7) of the same number (200 cells/well or 1000 cells/well) were added per well into Costar Ultra-Low Attachment Multiple Well Plates (CORNING), and were then treated with vehicle (DMSO) or drugs at various concentrations and cultured in a cell incubator under conditions of 37°C and 5% CO2. After repeatedly treating with the same concentrations of drugs every few days at regular intervals as indicated from the date of cell culture, the proliferation of the cells (spheres) was observed and photographed using an optical microscope on the last day of observation.
The drugs treated were the positive control drug TSAHC or the ST-1-025 isoxazole compound at the given concentrations. From the time of starting culture (0 day), (FIG. 3a) in the case of 2D culture, the number of cells was measured after treating with the drug every 24 hours, or (FIG. 3b) in a 3D environment, the proliferation of cells (spheres) was observed and photographed with an optical microscope on the 5th and 7th days after a single drug treatment at the start of culture. […]

[2] = tested on: TM4SF5-expressing cells (SNU449T7); experiment: Western blotting for signaling factors whose phosphorylation increases in a TM4SF5-expression dependent manner; assay type: cell-based, human; conditions: for phosphorylation of FAK, c-Src, STAT3, p27, S6K1, AKT, and STAT5: 24 hours (FIG. 9a-b); for phosphorylation of FAK, c-Src, STAT3, p27, S6K1, and AKT / phosphorylation of FAK, STAT3, c-Src, S6K1, Akt, and p27: given concentrations
Experimental: Cell extracts were obtained from cells grown to a density of 70-80% without any treatment, or from cells treated with vehicle DMSO or drugs at the given concentrations for 24 hours. For the extract of hepatocytes or liver cancer cells, a lysis buffer (150 mM NaCl, 1% NP-40, 50 mM Tris-HCl, 0.25% sodium deoxycholate, pH 7.4) including a protease inhibitor cocktail (GenDEPOT) was used. In addition, after washing animal liver tissue twice with PBS, SDS, Na3VO4, and protease inhibitor cocktails (GenDEPOT) were added to a lysis buffer [50 mM Tris-HCl, pH 7.4, 1% NP40, 0.25% sodium deoxycholate, 150 mM NaCl, 1 mM EDTA (based on 500 ml)], followed by treatment at 4°C for 15 minutes. After centrifugation at 13,000 rpm at 4°C for 30 minutes, only the supernatant was transferred to a new microcentrifuge tube. After quantification using BCA reagent (Thermo Scientific), a 4 × sample buffer [100% glycerol 4 ml, Tris-HCl, pH 6.8, 2.4 ml, SDS 0.8 g, Bromophenol blue 4 mg, betamercaptoethanol 0.4 ml, H2O 3.1 ml (based on 10 ml)] was added, followed by boiling at 100°C for 5 minutes. After performing SDS-PAGE electrophoresis with the above samples and transferring them to Nitrocellulose Membranes Protran™ nitrocellulose membranes (Whatman), pre-treatment was performed with 5% skim milk for 1 hour. After pre-treatment, primary antibodies of p-FAK(Y861) (SC-16663), p-FAK(Y577) (SC-16665), c-Src (SC-8056), STAT3 (SC-8019), p-AKT 1/2/3(S473) (SC-7985), STATS (SC-835), Laminin γ2 (SC-393225), COL1A1 (SC-28657), CCL5(RANTES) (SC-514019) CCL20(MIP-3α) (SC-517441), SIRT1 (SC-74465), ChREBP (SC-515922), SREBP1 (SC-366513), DGAT1 (SC-271934), DGAT2 (SC-293211), MICA/B (SC-137242), SLAMF7 (SC-390840), α-tublin (SC-5286), β-actin (SC-47778), FUCA (SC-365496) (the above from Santa Cruz Biotech, USA), p-FAK(Y397) (cat # 611723), FAK (cat # 610088), p27 (cat # 610242) (the above from BD Transduction, USA), p-FAK(Y925) (#3284) p-c-Src(Y416) (#2101), p-STAT3(Y705) (#9145), p70S6K1 (#9202), p-p70S6K1(T389) (#9205), p-STAT5(Y694) (#9314), ACC (#3676), FASN (#3189), CPT1A (#12252), p-ACC(S79) (#11818), HA (#3724), PD-L1 (#13684), PD-1 (#86163), p-ERK1/2(T202/Y204) (#9101s), ERK1/2 (#9102s) (the above from Cell Signaling Tech., USA), pS10p27(S10) (ab62364), human SLAMF6 (ab224201), TIGIT (ab233404), CD34 (ab81289) (the above from Abcam, UK), mouse SLAMF6 (PA5-87823), NKG2D (PA5-102038) (the above from Thermofisher, USA), α-SMA (Sigma Aldrich, A5228), CCL2 (Invitrogen, MA5-17040), and CD155(PVR) (Biolegend, 337601), HA (Biolegend, USA), Strep-HRP(horse-radish peroxidase), StrepMAB-HRP (IBA, USA), AFP (FineTest, FNab00203) were reacted at 4°C for 15 hours. The next day, secondary antibodies were reacted, and development was performed on X-ray film using ECL (Pierce, USA). Anti-TM4SF5C-ter (epitope region of RKKQDTPH^197) and anti-TM4SF5EC2 (CLMNGEWGYHFEDTAGA^130) were custom-made at a professional antibody production company (Pro-Sci, Poway, CA, USA).
Cell extracts were obtained before and after treating TM4SF5-non-expressing cells (SNU449Cp) and TM4SF5-expressing cells (SNU449T7) with ST-1-024 or ST-1-025 drugs at the given concentrations for 24 hours, and Western blotting was performed for signaling factors whose phosphorylation and activity increase in a TM4SF5-expression dependent manner.
(a) Cell extracts were obtained after treating TM4SF5-non-expressing cells (SNU449Cp) and TM4SF5-expressing cells (SNU449T7) with vehicle (DMSO), TSAHC, or isoxazole compounds ST-2-001, ST-2-002, ST-2-003, ST-2-004, ST-2-005, ST-2-006, ST-2-007, ST-2-008, ST-2-009, ST-2-010, or ST-2-011 at a dose of 5 µM (for 24 hours). Using these, Western blotting was performed for signaling factors whose phosphorylation and activity increase in a TM4SF5-expression dependent manner. […]

[3] = 0.5 or 2.5 µM, observed 6th or 10th day (FIG. 10a, b)
[4] = single treatment at 5 µM at start of culture, observed 5th and 7th days (FIG. 3b)
[5] = SNU449T7, given concentrations, 24 hours (FIG. 2)
[6] = 0.1 or 1.0 µM, observed 10th day (FIG. 10c)

## COc1ccc(-c2cc(-c3ccc(NC(C)=O)cc3)no2)cc1 [ST-2-001, N-(4-(5-(4-methoxyphenyl)isoxazole-3-yl)phenyl)acetamide]
[1]
  degree of cell proliferation (spheres): inhibited
  cell proliferation inhibitory effect: strong
  survival/proliferation of the spheres: inhibited
[1]; [3]
  degree of three-dimensional cell proliferation: inhibited
[2]; 5 µM, 24 hours (FIG. 5a)
  phosphorylation of FAK, c-Src, STAT3, and p27: decreased
[2]; 5 µM
  phosphorylation of FAK, c-Src, STAT3, p27, S6K1, AKT, and STAT5: decreased
[2]; 24 hours (FIG. 5c)
  phosphorylation of FAK, c-Src, STAT3, p27, S6K1, and AKT: decreased in a drug concentration-dependent manner
[2]; 24 hours (FIG. 9c)
  phosphorylation of FAK, c-Src, STAT3, p27, S6K1, and AKT: decreased in a concentration-dependent manner
[2]; 24 hours (FIG. 12a)
  phosphorylation of FAK, STAT3, c-Src, S6K1, Akt, and p27: inhibited in many cases including STAT3, S6K1, and FAK
[2]; 24 hours (FIG. 12d)
  phosphorylation of FAK, STAT3, c-Src, S6K1, Akt, and p27: inhibited

## COc1ccc(-c2cc(-c3ccc(N)cc3)no2)cc1 [ST-1-025, 4-(5-(4-methoxyphenyl)isoxazole-3-yl)aniline]
[1]; repeated treatment at given concentrations on the 0, 5, and 6th days, observed 7th day (FIG. 3c)
  degree of sphere proliferation: inhibited by ST-1-025 in a concentration-dependent manner, albeit slightly
[1]; [4]
  degree of sphere proliferation: inhibited, albeit slightly
[2]; [5]
  phosphorylation of FAK, c-Src, STAT3, and p27: decreased

## CC(=O)Nc1ccc(-c2cc(-c3ccc(F)cc3)on2)cc1 [ST-3-006, N-(4-(5-(4-fluorophenyl)isoxazole-3-yl)phenyl)acetamide]
[1]; [6]
  degree of three-dimensional cell proliferation: decreased
[1]
  cell proliferation inhibitory effect: strong
[1]; [3]
  degree of three-dimensional cell proliferation: inhibited
[2]; 5 µM
  phosphorylation of FAK, c-Src, STAT3, p27, S6K1, AKT, and STAT5: decreased
[2]; 24 hours (FIG. 9c)
  phosphorylation of FAK, c-Src, STAT3, p27, S6K1, and AKT: decreased in a concentration-dependent manner

## Cc1ccc(S(=O)(=O)Nc2ccc(C(=O)/C=C/c3ccc(O)cc3)cc2)cc1 [TSAHC, 4'-(p-toluenesulfonylamino)-4-hydroxychalcone, reference compound]
[1]
  degree of cell proliferation (spheres): inhibited
[1]; [4]
  degree of sphere proliferation: inhibited, albeit slightly
[2]; 5 µM, 24 hours (FIG. 5a)
  phosphorylation of FAK, c-Src, STAT3, and p27: decreased
[2]; [5]
  phosphorylation of FAK, c-Src, STAT3, and p27: decreased
[2]; 24 hours (FIG. 5c)
  phosphorylation of FAK, c-Src, STAT3, p27, S6K1, and AKT: decreased in a drug concentration-dependent manner

## COc1ccc(-c2cc(-c3cccc(NC(C)=O)c3)no2)cc1 [ST-3-011, N-(3-(5-(4-methoxyphenyl)isoxazole-3-yl)phenyl)acetamide]
[1]; [6]
  degree of three-dimensional cell proliferation: decreased
[1]; [3]
  degree of three-dimensional cell proliferation: inhibited
[2]; 5 µM
  phosphorylation of FAK, c-Src, STAT3, p27, S6K1, AKT, and STAT5: decreased
[2]; 24 hours (FIG. 9c)
  phosphorylation of FAK, c-Src, STAT3, p27, S6K1, and AKT: decreased in a concentration-dependent manner

## Cc1ccc(C(=O)Nc2ccc(-c3cc(-c4ccc(O)cc4)no3)cc2)cc1 [ST-5-002, N-(4-(3-(4-hydroxyphenyl)isoxazole-5-yl)phenyl)-4-methylbenzamide]
[1]
  survival/proliferation of the spheres: inhibited
[2]; drug with improved purity (FIG. 12d)
  phosphorylation inhibitory efficacy: maintained and further improved
[2]; 24 hours (FIG. 12d)
  phosphorylation of FAK, STAT3, c-Src, S6K1, Akt, and p27: inhibited

## CC(=O)Nc1ccc(-c2cc(-c3ccc(O)cc3)no2)cc1 [ST-5-001, N-(4-(3-(4-hydroxyphenyl)isoxazole-5-yl)phenyl)acetamide]
[1]
  survival/proliferation of the spheres: inhibited
[2]; 24 hours (FIG. 12d)
  phosphorylation of FAK, STAT3, c-Src, S6K1, Akt, and p27: inhibited

Reference: patent publication EP4772500A1, “NOVEL ISOXAZOLE COMPOUND AS TM4SF5-SPECIFIC INHIBITOR AND USE THEREOF” (Seoul National University R&DB Foundation, priority 2023, dated 2025)
